Source: PubChem BioAssay (NCI)
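Growth conditions: 96-well plates. Treatment: test compound, 48 hours, 5 concentrations. Analysis: linear interpolation between bracketing concentrations; unreached endpoints set to highest concentration. At the TGI there is no net growth.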

What was measured:
Test in all cases: NCI anticancer screen, dose series, 48 h
786-0 renal = tested on: 786-0 renal
CAKI-1 renal = tested on: CAKI-1 renal
COLO 205 colon = tested on: COLO 205 colon
DLD-1 colon = tested on: DLD-1 colon
DMS 114 small cell lung = tested on: DMS 114 small cell lung
EKVX NSCLC = tested on: EKVX NSCLC
HCC-2998 colon = tested on: HCC-2998 colon
HCT-116 colon = tested on: HCT-116 colon
HCT-15 colon = tested on: HCT-15 colon
HOP-18 NSCLC = tested on: HOP-18 NSCLC
HOP-62 NSCLC = tested on: HOP-62 NSCLC
HT29 colon = tested on: HT29 colon
IGROV1 ovarian = tested on: IGROV1 ovarian
K-562 leukemia = tested on: K-562 leukemia
KM12 colon = tested on: KM12 colon
M14 melanoma = tested on: M14 melanoma
M19-MEL melanoma = tested on: M19-MEL melanoma
MALME-3M melanoma = tested on: MALME-3M melanoma
MOLT-4 leukemia = tested on: MOLT-4 leukemia
NCI-H23 lung = tested on: NCI-H23 lung
OVCAR-3 ovarian = tested on: OVCAR-3 ovarian
OVCAR-4 ovarian = tested on: OVCAR-4 ovarian
OVCAR-5 ovarian = tested on: OVCAR-5 ovarian
OVCAR-8 ovarian = tested on: OVCAR-8 ovarian
RPMI-8226 leukemia = tested on: RPMI-8226 leukemia
RXF 393 renal = tested on: RXF 393 renal
SF-295 CNS = tested on: SF-295 CNS
SF-539 CNS = tested on: SF-539 CNS
SK-MEL-2 melanoma = tested on: SK-MEL-2 melanoma
SK-MEL-28 melanoma = tested on: SK-MEL-28 melanoma
SK-MEL-5 melanoma = tested on: SK-MEL-5 melanoma
SK-OV-3 ovarian = tested on: SK-OV-3 ovarian
SNB-19 CNS = tested on: SNB-19 CNS
SNB-78 CNS = tested on: SNB-78 CNS
SR leukemia = tested on: SR leukemia
TK-10 renal = tested on: TK-10 renal
U251 CNS = tested on: U251 CNS
UACC-62 melanoma = tested on: UACC-62 melanoma
UO-31 renal = tested on: UO-31 renal
XF 498 CNS = tested on: XF 498 CNS
A498 renal = tested on: A498 renal
ACHN renal = tested on: ACHN renal
CCRF-CEM leukemia = tested on: CCRF-CEM leukemia
KM20L2 colon = tested on: KM20L2 colon
LOX IMVI melanoma = tested on: LOX IMVI melanoma
LXFL 529 NSCLC = tested on: LXFL 529 NSCLC
NCI-H460 lung = tested on: NCI-H460 lung
NCI-H522 lung = tested on: NCI-H522 lung
SF-268 CNS = tested on: SF-268 CNS
SN12C renal = tested on: SN12C renal
SNB-75 CNS = tested on: SNB-75 CNS
UACC-257 melanoma = tested on: UACC-257 melanoma

Measured: TGI

COC(=O)C12C(=O)O[C@H](C)C1(O)C(C)C(=O)N2C (stereo not given in full)
> 100 µM: 786-0 renal | CAKI-1 renal | COLO 205 colon | DLD-1 colon | DMS 114 small cell lung | EKVX NSCLC | HCC-2998 colon | HCT-116 colon | HCT-15 colon | HOP-18 NSCLC | HOP-62 NSCLC | HT29 colon | IGROV1 ovarian | K-562 leukemia | KM12 colon | M14 melanoma | M19-MEL melanoma | MALME-3M melanoma | MOLT-4 leukemia | NCI-H23 lung | OVCAR-3 ovarian | OVCAR-4 ovarian | OVCAR-5 ovarian | OVCAR-8 ovarian | RPMI-8226 leukemia | RXF 393 renal | SF-295 CNS | SF-539 CNS | SK-MEL-2 melanoma | SK-MEL-28 melanoma | SK-MEL-5 melanoma | SK-OV-3 ovarian | SNB-19 CNS | SNB-78 CNS | SR leukemia | TK-10 renal | U251 CNS | UACC-62 melanoma | UO-31 renal
86.2 µM: XF 498 CNS

Cc1cc(C)nc(NS(=O)(=O)c2ccc(Nc3c4ccc(Cl)cc4nc4c(C(=O)Nc5ccc(S(=O)(=O)N=C(N)N)cc5)cccc34)cc2)n1
> 100 µM: 786-0 renal | A498 renal | ACHN renal | CCRF-CEM leukemia | DLD-1 colon | DMS 114 small cell lung | EKVX NSCLC | HCC-2998 colon | HCT-116 colon | HCT-15 colon | HOP-62 NSCLC | HT29 colon | K-562 leukemia | KM12 colon | KM20L2 colon | LOX IMVI melanoma | LXFL 529 NSCLC | M14 melanoma | M19-MEL melanoma | MALME-3M melanoma | MOLT-4 leukemia | NCI-H23 lung | NCI-H460 lung | NCI-H522 lung | OVCAR-3 ovarian | OVCAR-4 ovarian | OVCAR-5 ovarian | OVCAR-8 ovarian | RPMI-8226 leukemia | RXF 393 renal | SF-268 CNS | SF-295 CNS | SF-539 CNS | SK-MEL-28 melanoma | SK-OV-3 ovarian | SN12C renal | SNB-19 CNS | SNB-75 CNS | SNB-78 CNS | TK-10 renal | U251 CNS | UACC-257 melanoma | UACC-62 melanoma | UO-31 renal | XF 498 CNS
